According to patent publication US8299106B2, “Compositions of kinase inhibitors and their use for treatment of cancer and other diseases related to kinases” (Boston Biomedical, Inc., priority 2007, dated 2012):

Columns and labels:
HT29 = assay: Colony formation assay (CFA), HT29; assay type: cell-based; settings: grown 7-10 days
Method: (§1) Cell Viability Determination: For colony formation assay, cells were plated in 6 well plates at 2000 cells per well. Twenty-four hours after plating, cells were treated with compound. Colonies were allowed to develop for 7-10 days, at which they were stained with modified Giemsa stain (Sigma). Stained colonies were then counted to determine IC50.
(§2) Compounds 5 [as shown in Example 1], 3 [as shown in Example 1], 7-1[as shown in Example 1], 10-2 [as shown in Example 3], 10-1 [as shown in Example 2], and 13-1 [as shown in Example 4] were tested for their ability to inhibit cell growth and promote cell death using the colony formation assay (CFA). Cells were treated for either 6 or twenty-four hours with the indicated compounds, and then allowed to grow for an additional 7-10 days. Cells were then stained, and colonies counted to determine IC-50 values.
(§3) Similarly, Compound 10-2 [as shown in Example 3] was tested against a wide range of cancer cell lines.

MDA-MB-231 = assay: Colony formation assay (CFA), MDA-MB-231; assay type: cell-based; settings: grown 7-10 days
Method: as §1, §2

FaDu = assay: Colony formation assay (CFA), FaDu; assay type: cell-based; settings: Homo sapiens, treated 6 or 24 hours, grown 7-10 days
Method: as §1, §2, §3

[1] = test system: Hoechst side population of SW480 cells; assay: Colony formation assay, Hoechst side population vs non-side population; assay type: cell-based; settings: colony formation assays, FIG. 4B
Method: as §1
Hoechst Side Population: SW480 cells were removed from the culture dish with trypsin and ethylenediaminetetraacetic acid (“EDTA”), pelleted by centrifugation, washed with phosphate-buffered saline (PBS), and resuspended at 37° C. in Dulbecco's modified Eagle's medium (DMEM) containing 2% FBS and 1 mM 4-(2-hydroxyethyl)-1-piperazineethanesulfonic acid (HEPES). The cells were then labeled with Hoechst 33342 (Invitrogen) at a concentration of 5 μg/mL. The labeled cells were incubated for 120 minutes at 37° C., either alone or with 50 μM verapamil (Sigma-Aldrich, St. Louis). After staining, the cells were suspended in Hanks' balanced saline solution (HBSS; Invitrogen) containing 2% FBS and 1 mM HEPES, passed a through 40 μm mesh filter, and maintained at 4° C. until flow cytometry analysis. The Hoechst dye was excited at 350 nm, and its fluorescence was measured at two wavelengths using a 450 DF10 (450/20 nm band-pass filter) and a 675LP (675 nm long-pass edge filter) optical filter. […]

SW480 cells = assay: Hoechst side population staining of SW480 cells; assay type: cell-based; settings: treated before Hoechst staining (50 μM), FIG. 4A
Method: Hoechst Side Population: SW480 cells were removed from the culture dish with trypsin and ethylenediaminetetraacetic acid (“EDTA”), pelleted by centrifugation, washed with phosphate-buffered saline (PBS), and resuspended at 37° C. in Dulbecco's modified Eagle's medium (DMEM) containing 2% FBS and 1 mM 4-(2-hydroxyethyl)-1-piperazineethanesulfonic acid (HEPES). The cells were then labeled with Hoechst 33342 (Invitrogen) at a concentration of 5 μg/mL. The labeled cells were incubated for 120 minutes at 37° C., either alone or with 50 μM verapamil (Sigma-Aldrich, St. Louis). After staining, the cells were suspended in Hanks' balanced saline solution (HBSS; Invitrogen) containing 2% FBS and 1 mM HEPES, passed a through 40 μm mesh filter, and maintained at 4° C. until flow cytometry analysis. The Hoechst dye was excited at 350 nm, and its fluorescence was measured at two wavelengths using a 450 DF10 (450/20 nm band-pass filter) and a 675LP (675 nm long-pass edge filter) optical filter. The gating on forward and side scatter was not stringent, and only debris was excluded (Goodell et al., 1996 J Exp Med 183, 1797-806).
SW480 cells were stained with Hoechst. The side population (shown in FIG. 4A, upper left panel gated area) was sorted out to enrich the cancer stem cells. […]

FaDu xenograft tumors = assay: Spherogenesis of cells from treated FaDu xenograft tumors; assay type: in vivo, mice; settings: daily po for four days; carboplatin 30 mg/kg, 10-2 100 mg/kg; spheres after 10-14 days
Method: In addition, we also tested if compound 10-2 can target cancer stem cells in vivo. Six-week-old female athymic nu/nu mice were obtained from Charles River Labs (Wilmington, Mass.). Mice were injected subcutaneously on the flank with 6×10^6 FaDu cancer cells in 0.2 mL of serum-free DMEM. After xenografts reached ˜200 mm^3 in size, animals bearing FaDu xenograft tumors were administered daily with either vehicle, carboplatin (30 mg/kg), or compound 10-2 (100 mg/kg) via po for four days before sacrifice. Tumors were then collected for FaDu cells. Single cell suspensions were obtained following animal sacrifice, and sterile removal of tumors. Briefly, tumors were minced with sterile scalpels into 0.1 mm^3 pieces before being digested in 1 mg/mL collagenase/HBSS for 15-30 minutes with constant agitation. Following passage through a 40 μm mesh filter, RBCs, dead cells, and cell debris were removed by layering the cell suspension onto 1 mL of Histopaque and collecting interface layer after centrifugation at 1440×g for 30 minutes. Live cells were then counted and used to measure their ability to form spheres. […] Fresh media was added every three days, and sphere formation was determined after 10-14 days in culture. Spheres with >50 cells were scored. […]

[2] = Homo sapiens, HT-29, treated 6 or 24 hours
[3] = Homo sapiens, MDA-MB-231, treated 6 or 24 hours

IC50 (HT29; [2]) [nM] | IC50 (MDA-MB-231; [3]) [nM] | Structure (SMILES) | other results
– | – | Cc1nc(-c2ccc3c(c2)CC(=O)N3)cs1 [Compound 3] | IC50 (HT29; treated 6 or 24 hours): 50000 to 300000 nM; IC50 (MDA-MB-231; treated 6 or 24 hours): 50000 to 300000 nM
1500 to 3000 | 800 to 1500 | Cc1[nH]c(/C=C2\C(=O)Nc3ccc(-c4csc(-c5ccccc5)n4)cc32)c(C)c1C(=O)N1CCN(C)CC1 [Compound 10-1] | –
400 to 800 | 100 to 250 | Cc1[nH]c(/C=C2\C(=O)Nc3ccc(-c4csc(-c5cccnc5)n4)cc32)c(C)c1C(=O)N1CCN(C)CC1 [Compound 13-1] | –
– | – | CCN(CC)CCNC(C)c1c(C)[nH]c(/C=C2\C(=O)Nc3ccc(-c4csc(-c5cccnc5)n4)cc32)c1C (stereo not drawn) [Compound 13-2] | IC50 (FaDu): 300 to 400 nM
– | – | COc1cccc2c1C(=O)c1c(O)c3c(c(O)c1C2=O)C[C@@](O)(C(=O)CO)C[C@@H]3O[C@H]1C[C@H](N)[C@H](O)[C@H](C)O1 [Doxorubicin] | side population relative to non-side population [1]: more resistant
– | – | COc1ccc(CCN(C)CCCC(C#N)(c2ccc(OC)c(OC)c2)C(C)C)cc1OC (stereo not drawn) [Verapamil] | effect on Hoechst side population (SW480 cells): loss of the side population
– | – | N.N.O=C([O-])C1(C(=O)[O-])CCC1.[Pt+2] [carboplatin] | spherogenesis of tumor cells after in vivo treatment (FaDu xenograft tumors): unchanged spherogenesis

Structure (SMILES) | IC50 (HT29; [2]) [nM] | IC50 (MDA-MB-231; [3]) [nM] | other results
Cc1nc(-c2ccc3c(c2)/C(=C/c2[nH]c(C)c(C(=O)N4CCN(C)CC4)c2C)C(=O)N3)cs1 [Compound 7-1] | 6000 to 10000 | 6000 to 10000 | –
